# Data from patent publication US20260234188A1, “CHEMOKINE-BINDING PEPTIDES” (Oxford University Innovation Limited, priority 2022, published 2026).
# Ends that are not written are not given here. Peptide text beside a SMILES is read from it.
# Experiments:
# Type in all cases: cell-based
# Details in all cases: HD2 mutant peptides 10 μM, chemokine at EC80
# CXCL9 = molecular target: T1, CXCL9 (Homo sapiens, UniProt Q07325); test: CXCL9-induced activated T-cell migration, transwell assay
# T1 construct: purchased Peprotech
# T1 sequence (Q07325 23-125): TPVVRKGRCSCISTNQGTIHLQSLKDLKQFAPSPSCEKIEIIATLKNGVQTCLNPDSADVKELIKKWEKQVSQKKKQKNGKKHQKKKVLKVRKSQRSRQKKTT
# Protocol: FIG. 2. […] BK1.2 is described in (Darlot, 2020). […] Chemokines used are indicated by the name, followed in parenthesis by the supplier code (P in supplier code indicates Peprotech). […] All experiments were performed at EC80 doses of indicated chemokine. Data are shown as box-whisker plots of three technical and three biological replicates. Statistically significant differences (compared to control, indicated by #), using Dunnett's test with correction for multiple comparisons, are indicated by asterisks: ****=P≤0.0001, ***=P≤0.001, **=P≤0.01, *=P≤0.05.
# Briefly, cell migration assays use THP1 cells (human monocyte) and primary human buffy coat white cells (consisting of neutrophil granulocytes, monocytes, and lymphocytes), and activated T-cells. THP1 cells and primary monocytes respond to CCL2, CCL3, CCL5, CCL8 and CXCL4, granulocytes to CXCL1 and CXCL8, activated T-cells to CXCL9/10/11. Assays are performed in 96-well Boyden chambers, and migrated cells counted and characterized using and ATTUNE Flow Cytometer as described. Triplicate assays are performed at the EC80 dose of each chemokine at 10 μM peptide concentration.
# The J:CXCR1 cell line was generated by transfecting Jurkat cells by electroporation with PvuI-linearized plasmid D1398 and selecting with blasticidin (Sigma-Aldrich, Cat #203350, […]). […] J:CXCR1 cells were cultured in RPMI-1640 media (Gibco), supplemented with 10% FBS and 5 mM L-Glutamine with blasticidin. For J:CXCR1 migration assays, 300,000 cells/well were added to the top chamber of a 3 μm Transwell insert (Corning) in 50 μL of migration media (RPMI-1640, 0.5% FBS, 4 mM L-Glutamine, 0.05% DMSO). The bottom chamber contained 150 μL of chemokine, with or without peptide. Cells were migrated at 37° C. in 5% CO2 for 4 hours. The plate was incubated on a shaking platform for 10 minutes, 800 rpm, at 37° C., and 150 μL from the bottom of the plate transferred into a U-bottom plate containing 50 μL of migration media. Cell counts were determined by Attune NxT Flow Cytometer Plate Reader (ThermoFisher), based on cell size parameters FSC-H/SSC-H. Experiments were performed in 3 technical and 3 biological replicates. THP-1 migration assays were carried out using methods known in the art. Activated T-cell assays were carried out using methods known in the art, with the following modifications in the isolation process. Peripheral blood cells were obtained from leucocyte cones (NHS Blood Transfusion Services), following which, T-cells were isolated using two rounds of human CD8+ T-cell isolation kit (480011, BioLegend). At day 10 after activation, T-cells were frozen at 20 E6 cells/ml in TexMACS medium supplemented with 10% DMSO (D2650, Sigma) in liquid nitrogen. Prior to use, activated T-cells were recovered for 24 hours in TexMACs medium at 0.3 E6 cells/ml and incubated at 37° C. in 5% CO2. Chemokine sources are described in Supplementary information Table 3. Statistical significances between control experimental groups was evaluated using Dunnett's test. IC50 experiments were performed at the EC80 dose of chemokine. EC80 was calculated by fitting a chemokine dose-response curve with 3 parameters (fixing the top to 100%). IC50 was calculated by fitting an inhibitor response curve with 4 parameters.
# CCL14 = molecular target: T2, CCL14 (Homo sapiens, UniProt Q16627); test: CCL14-induced cell migration assay
# T2 sequence (Q16627 20-93): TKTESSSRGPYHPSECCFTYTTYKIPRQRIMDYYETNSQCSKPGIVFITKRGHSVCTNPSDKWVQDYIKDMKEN
# Protocol: FIGS. 24 and 25. Effect of exemplar mutant HD2 peptides on chemotaxis. Box-whisker plots showing the effect of the exemplar mutant HD2 peptides on cell migration induced by indicated human chemokines. All experiments were performed as at least three technical and between one to three biological replicates, and individual data points are indicated. […] Chemokine and cell type names are indicated. HD2SCR is a scrambled version of HD2 used as negative control. All peptides were at 10 μM final concentration and chemokines at EC80 doses. […]
# The J:CXCR1 cell line was generated by transfecting Jurkat cells by electroporation with PvuI-linearized plasmid D1398 and selecting with blasticidin (Sigma-Aldrich, Cat #203350, 5 g/mL). […] Cell counts were determined by Attune NxT Flow Cytometer Plate Reader (ThermoFisher), based on cell size parameters FSC-H/SSC-H. Experiments were performed in 3 technical and 3 biological replicates. […] Statistical significances between control experimental groups was evaluated using Dunnett's test. […] EC80 was calculated by fitting a chemokine dose-response curve with 3 parameters (fixing the top to 100%). IC50 was calculated by fitting an inhibitor response curve with 4 parameters. […]
# CCL15 = molecular target: T3, CCL15 (Homo sapiens, UniProt Q16663); test: CCL15-induced cell migration assay
# T3 sequence (Q16663 22-113): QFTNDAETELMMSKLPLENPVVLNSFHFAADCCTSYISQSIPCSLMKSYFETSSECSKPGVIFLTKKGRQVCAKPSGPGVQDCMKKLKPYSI
# Protocol: FIGS. 24 and 25. Effect of exemplar mutant HD2 peptides on chemotaxis. Box-whisker plots showing the effect of the exemplar mutant HD2 peptides on cell migration induced by indicated human chemokines. All experiments were performed as at least three technical and between one to three biological replicates, and individual data points are indicated. […] Chemokine and cell type names are indicated. HD2SCR is a scrambled version of HD2 used as negative control. All peptides were at 10 μM final concentration and chemokines at EC80 doses. Statistically significant differences (compared to control, coloured blue), using Dunnett's test with correction for multiple comparisons, are indicated by asterisks: ****=P≤0.0001, ***=P≤0.001, **=P≤0.01, *=P≤0.05.
# The J:CXCR1 cell line was generated by transfecting Jurkat cells by electroporation with PvuI-linearized plasmid D1398 and selecting with blasticidin (Sigma-Aldrich, Cat #203350, […]). […] J:CXCR1 cells were cultured in RPMI-1640 media (Gibco), supplemented with 10% FBS and 5 mM L-Glutamine with blasticidin. For J:CXCR1 migration assays, 300,000 cells/well were added to the top chamber of a 3 μm Transwell insert (Corning) in 50 μL of migration media (RPMI-1640, 0.5% FBS, 4 mM L-Glutamine, 0.05% DMSO). […] Cell counts were determined by Attune NxT Flow Cytometer Plate Reader (ThermoFisher), based on cell size parameters FSC-H/SSC-H. Experiments were performed in 3 technical and 3 biological replicates. […] Statistical significances between control experimental groups was evaluated using Dunnett's test. […] EC80 was calculated by fitting a chemokine dose-response curve with 3 parameters (fixing the top to 100%). IC50 was calculated by fitting an inhibitor response curve with 4 parameters.
# Migration assays using THP1, activated T-cell (ATC) and J:CXCR1 (Jurkat cells stably transfected with CXCR1 receptor) were performed as described previously. […] EC80 was calculated by fitting a chemokine dose-response curve with 3 parameters (fixing the top to 100%). IC50 was calculated by fitting an inhibitor response curve with 4 parameters. […]
Compound,chemotaxis compared with the parental HD2 peptide (CXCL9),chemotaxis compared with the parental HD2 peptide (CCL14),chemotaxis compared with the parental HD2 peptide (CCL15)
"CC(C)C[C@H](NC(=O)[C@@H]1CCCN1C(=O)[C@H](C)NC(=O)[C@H](Cc1ccc(O)cc1)NC(=O)[C@H](C)NC(=O)[C@@H](NC(=O)[C@H](Cc1ccc(O)cc1)NC(=O)[C@H](CC(=O)O)NC(=O)[C@H](CC(=O)O)NC(=O)[C@H](CCC(=O)O)NC(=O)[C@@H](N)CCC(=O)O)[C@@H](C)O)C(=O)N[C@H](C(=O)N[C@@H](CS)C(=O)N[C@@H](Cc1ccc(O)cc1)C(=O)N[C@@H](Cc1ccccc1)C(=O)N[C@@H](CS)C(N)=O)[C@@H](C)O [HD2_C16, EEDDYTAYAPLTCYFC] (H-EEDDYTAYAPLTCYFC-NH2; N-terminus assumed)",significant reduction in chemotaxis,significant reduction in chemotaxis,significant reduction in chemotaxis
"EEDDWTAYAPLTCYFT-NH2 [HD2_W5, EEDDWTAYAPLTCYFT]",significant reduction in chemotaxis,,
EEDDYTAYWPLTCYFT [A9W],significant reduction in chemotaxis,,significant reduction in chemotaxis
EEDDYWAYAPLTCYFT [HD2_W6],significant reduction in chemotaxis,,significant reduction in chemotaxis
